Source: ChEMBL document CHEMBL1687820, “Photolysis of hydrogen peroxide, an effective disinfection system via hydroxyl radical formation” (Antimicrob Agents Chemother, 2010)

What was measured:
Type in all cases: functional, organism-based
[1] = test system: Streptococcus mutans; assay: Antibacterial activity against Streptococcus mutans JCM 5705 assessed as reduction of viable organism at 1 M followed by 300 mW of laser irradiation measured within 3 mins
[2] = test system: Aggregatibacter actinomycetemcomitans; assay: Antibacterial activity against Aggregatibacter actinomycetemcomitans JCM 2434 assessed as reduction of viable organism at 1 M followed by 300 mW of laser irradiation measured within 3 mins
[3] = test system: Enterococcus faecalis; assay: Antibacterial activity against Enterococcus faecalis ATCC 29212 assessed as concentration required to 4 log reduction of viable organism measured after 300 mW of laser irradiation
[4] = test system: Streptococcus mutans; assay: Antibacterial activity against Streptococcus mutans JCM 5705 assessed as concentration required to 5 log reduction of biofilm measured after 300 mW of laser irradiation by scanning electron microscopy
[5] = test system: Streptococcus mutans; assay: Antibacterial activity against Streptococcus mutans JCM 5705 assessed as reduction of biofilm measured within 3 mins by scanning electron microscopy
[6] = test system: Staphylococcus aureus; assay: Antibacterial activity against Staphylococcus aureus ATCC 25923 assessed as reduction of viable organism at 1 M followed by 300 mW of laser irradiation measured within 3 mins
[7] = test system: Staphylococcus aureus; assay: Antibacterial activity against Staphylococcus aureus ATCC 25923 assessed as concentration required to 4 log reduction of viable organism measured after 300 mW of laser irradiation
[8] = test system: Enterococcus faecalis; assay: Antibacterial activity against Enterococcus faecalis ATCC 29212 assessed as reduction of viable organism measured after 300 mW of laser irradiation
[9] = test system: Streptococcus mutans; assay: Antibacterial activity against Streptococcus mutans JCM 5705 assessed as concentration required to 4 log reduction of viable organism measured after 300 mW of laser irradiation
[10] = test system: Enterococcus faecalis; assay: Antibacterial activity against Enterococcus faecalis ATCC 29212 assessed as reduction of viable organism at 1 M followed by 300 mW of laser irradiation measured within 3 mins
[11] = test system: Streptococcus mutans; assay: Antibacterial activity against Streptococcus mutans JCM 5705 assessed as reduction of biofilm at 1 M followed by 300 mW of laser irradiation measured within 3 mins by scanning electron microscopy
[12] = test system: Aggregatibacter actinomycetemcomitans; assay: Antibacterial activity against Aggregatibacter actinomycetemcomitans JCM 2434 assessed as concentration required to 4 log reduction of viable organism measured after 300 mW of laser irradiation

## [OH]
[1]
  log10CFU/ml: 4
[2]
  log10CFU/ml: > 4
[3]
  Activity: 258 µM
[4]
  Activity: 258 µM
[5]
  log10CFU/ml: 1
[6]
  log10CFU/ml: > 4
[7]
  Activity: 173 µM
[8]
  Activity: Dose-dependent effect
[9]
  Activity: 173 µM
[10]
  log10CFU/ml: > 4
[11]
  log10CFU/ml: > 5
[12]
  Activity: 89 µM
